System: control human primary myoblasts
Experiment: Expression microarray of primary myoblasts transduced with lentivirus carrying DUX4-fl, DUX4-s or GFP
Protocol: Primary human myoblasts were collected and cultured as previously described (Snider et al., 2010). Primary myoblasts were maintained at or below 70% confluency for proliferation. For differentiation, cells were allowed to reach 95-100% confluency in growth medium. Once confluency was reached, the cells were changed to differentiation medium (F10 media supplemented with 1% horse serum, 10 μg/mL insulin, and 10 μg/mL transferrin, penicillin/streptomycin) and maintained for 4 days. Human RD cells were grown in DMEM in 10% bovine calf serum (Hyclone) and penicillin/streptomycin. The primary myoblasts were transduced with lentivirus carrying DUX-fl, DUX4- or GFP (MOI=15).
Expression microarrays were performed on the transduced cells at 24 hours after transduction as follows. […] Samples were analyzed by Illumina Human Whole Genome microarrays. Probe intensities were corrected, normalized, and summarized by the Lumi package of Bioconductor (Du et al., 2008). Differentially expressed genes were identified by the LIMMA package of Bioconductor (Wettenhall and Smyth, 2004). Gene set enrichment analysis (GSEA) was performed using the Bioconductor GOstats package (Falcon and Gentleman, 2007).

## DUX4-fl: full-length DUX4 protein (SEQ ID NO:110), expressed from lentiviral or pCS2 vectors or in vitro translated
Refseq NM_032166.2
  fc of ATRIP (expression array): −1.006
Refseq NM_032171.1
  CEP78 expression fc: 2.035
Refseq NM_032195.1
  SON expression fc: 2.055
Refseq NM_032239.2
  LARP1B expression fc: 1.858
Refseq NM_032286.2
  MED10 expression fc: 1.965
Refseq NM_032324.1
  C1orf57 fc: −1.117
Refseq NM_032377.3
  ELOF1 expression fc: 1.884
Refseq NM_032413.2
  fc of C15orf48 (expression array): −0.8681
Refseq NM_032471.4
  PKIB expression fc: 1.858
Refseq NM_032505.1
  KBTBD8 expression fc: 3.076
Refseq NM_032508.1
  TMEM185A expression fc: 2.292
Refseq NM_032510.3
  PARD6G fc: −1.161
Refseq NM_032565.2
  fc of EBPL (expression array): −1.006
Refseq NM_032592.3
  fc of ACCS (expression array): −1.038
Refseq NM_032626.5
  RBBP6 expression fc: 1.986
Refseq NM_032681.1
  SPRYD5 expression fc: 8.045
Refseq NM_032802.3
  fc of SPPL2A (expression array): −0.7524
Refseq NM_032827.4, cultured human skeletal muscle
  ATOH8 expression fc: −2.073
Refseq NM_032854.2
  CORO6 fc: −1.12
Refseq NM_032862.2
  fc of TIGD5 (expression array): −1.003
Refseq NM_032992.2
  CASP6 expression fc: 2.035
Refseq NM_033034.1
  TRIM5 fc: −1.114
Refseq NM_033255.2, cultured human skeletal muscle
  EPSTI1 expression fc: −4.12
Refseq NM_033285.2
  TP53INP1 fc: −1.138
Refseq NM_033294.2
  CASP1 fc: −1.17
Refseq NM_033405.2, cultured human skeletal muscle
  PRIC285 expression fc: −2.608
Refseq NM_033414.2
  ZNF622 expression fc: 2.406
Refseq NM_052839.2
  PANX2 expression fc: 3.831
Refseq NM_052865.2
  fc of C20orf72 (expression array): −1.04
Refseq NM_052942.2
  fc of GBP5 (expression array): −0.9094
Refseq NM_052947.3
  fc of ALPK2 (expression array): −0.3826
Refseq NM_053034.1
  fc of ANTXR1 (expression array): −1.013
Refseq NM_057089.2
  AP1S1 fc: −1.095
Refseq NM_057182.1
  CCNE1 expression fc: 1.863
Refseq NM_058229.2
  FBXO32 fc: −1.177
Refseq NM_058241.1
  CCNT2 expression fc: 1.876
Refseq NM_080546.3
  SLC44A1 fc: −1.132
Refseq NM_080592.2
  fc of C2orf28 (expression array): −1.029
Refseq NM_080677.1
  DYNLL2 expression fc: 2.736
Refseq NM_080731.1
  HOM-TES-103 fc: −1.065
Refseq NM_080740.3
  ZNF280A expression fc: 3.798
Refseq NM_080757.1, cultured human skeletal muscle
  C20orf127 expression fc: −2.098
Refseq NM_080841.2
  fc of PTPRA (expression array): −1.02
Refseq NM_080874.2
  ASB5 fc: −1.135
Refseq NM_133172.2, cultured human skeletal muscle
  APBB3 expression fc: −1.994
Refseq NM_133375.2
  fc of DIS3L (expression array): −1.005
Refseq NM_138409.1
  C6orf117 expression fc: 2.446
Refseq NM_138432.2
  fc of SDSL (expression array): −1.011
Refseq NM_138800.1
  TRIM43 expression fc: 5.806
Refseq NM_138809.3, cultured human skeletal muscle
  CMBL expression fc: −1.992
Refseq NM_139241.1
  fc of FGD4 (expression array): −0.5592
Refseq NM_139314.1
  ANGPTL4 fc: −1.064
Refseq NM_144614.2
  MBD3L2 expression fc: 7.623
Refseq NM_144616.2
  JSRP1 fc: −1.175
Refseq NM_144641.1
  fc of PPM1M (expression array): −1.015
Refseq NM_144695.2
  fc of C1orf58 (expression array): −0.4075
Refseq NM_144779.1
  FXYD5 fc: −1.065
Refseq NM_145018.2
  Cllorf82 expression fc: 2.531
Refseq NM_145057.2
  CDC42EP5 fc: −1.137
Refseq NM_145263.2, cultured human skeletal muscle
  SPATA18 expression fc: −1.989
Refseq NM_145279.4
  MOBKL2C fc: −1.106
Refseq NM_145288.1
  ZNF296 expression fc: 5.536
Refseq NM_145792.1
  fc of MGST1 (expression array): −1.032
Refseq NM_145798.2
  OSBPL7 fc: −1.145
Refseq NM_147184.1, cultured human skeletal muscle
  TP53I3 expression fc: −1.961
Refseq NM_152219.3
  fc of GJD3 (expression array): −1.028
Refseq NM_152282.3
  ACPL2 fc: −1.079
Refseq NM_152379.2
  fc of C1orf131 (expression array): −1.023
Refseq NM_152542.2
  fc of PPM1K (expression array): −0.146
Refseq NM_152589.1
  C12orf50 expression fc: 4.522
Refseq NM_152608.3
  C1orf55 expression fc: 2.049
Refseq NM_152649.1, cultured human skeletal muscle
  MLKL expression fc: −2.992
Refseq NM_152677.1
  ZSCAN4 expression fc: 8.322
Refseq NM_152703.2, cultured human skeletal muscle
  SAMD9L expression fc: −2.532
Refseq NM_152718.2, cultured human skeletal muscle
  VWCE expression fc: −3.317
Refseq NM_152783.3
  fc of D2HGDH (expression array): −1.031
Refseq NM_152877.1
  FAS fc: −1.133
Refseq NM_153000.3, cultured human skeletal muscle
  APCDD1 expression fc: −1.894
Refseq NM_153321.1
  PMP22 fc: −1.103
Refseq NM_153449.2
  SLC2A14 expression fc: 2.374
Refseq NM_153611.3, cultured human skeletal muscle
  CYBASC3 expression fc: −1.945
Refseq NM_170699.2
  GPBAR1 expression fc: 1.936
Refseq NM_170722.1
  NLRX1 fc: −1.167
Refseq NM_172002.3
  fc of HSCB (expression array): −1.009
Refseq NM_172070.2
  fc of ZNF650 (expression array): −1.016
Refseq NM_172374.1
  fc of IL4I1 (expression array): −0.7571
Refseq NM_173484.3
  KLF17 expression fc: 1.779
Refseq NM_173587.2
  fc of RCOR2 (expression array): −1.051
Refseq NM_173674.1
  fc of DCBLD1 (expression array): −0.667
Refseq NM_173701.1, cultured human skeletal muscle
  WARS expression fc: −1.917
Refseq NM_173824.2
  fc of C3orf38 (expression array): −0.5458
Refseq NM_174916.1
  fc of UBR1 (expression array): −0.08618
Refseq NM_174921.1
  fc of C4orf34 (expression array): −1.044
Refseq NM_174938.3
  FRMD3 fc: −1.116
Refseq NM_175617.3, cultured human skeletal muscle
  MT1E expression fc: −2.067
Refseq NM_175852.3
  TXLNA fc: −1.157
Refseq NM_176870.2, cultured human skeletal muscle
  MT1M expression fc: −2.921
Refseq NM_176895.1
  PPAP2A fc: −1.106
Refseq NM_177436.1
  CSE1L expression fc: 2.937
Refseq NM_177968.2
  PPM1B expression fc: 1.831
Refseq NM_178006.1
  fc of STARD13 (expression array): −1.001
Refseq NM_178314.2
  RILPL1 fc: −1.072
Refseq NM_181054.1
  HIF1A fc: −1.15
Refseq NM_181353.1
  ID1 fc: −1.166
Refseq NM_181435.4
  C1QTNF3 expression fc: 1.974
Refseq NM_181677.1
  PPP2R2B expression fc: 4.13
Refseq NM_181876.2
  PPP2R2C fc: −1.064
Refseq NM_182557.2
  BCL9L fc: −1.111
Refseq NM_182972.2
  fc of IRF2BP2 (expression array): −1.041
Refseq NM_182985.3
  fc of TRIM69 (expression array): −1.002
Refseq NM_184086.1
  fc of TRIM55 (expression array): −1.053
Refseq NM_184234.1
  RBM39 expression fc: 1.8
Refseq NM_194281.3
  INO80C expression fc: 1.98
Refseq NM_194285.2
  SPTY2D1 expression fc: 3.286
Refseq NM_194431.1
  fc of RNASE4 (expression array): −1.06
Refseq NM_197966.1
  BID fc: −1.078
Refseq NM_198055.1
  fc of MZF1 (expression array): −1.004
Refseq NM_198150.1
  fc of ARSK (expression array): −0.8435
Refseq NM_198291.1
  fc of SRC (expression array): −1.041
Refseq NM_198450.3
  fc of APOOL (expression array): −0.5757
Refseq NM_198459.2
  DENND2C expression fc: 2.609
Refseq NM_198479.2
  TPRX1 expression fc: 4.483
Refseq NM_198576.2, cultured human skeletal muscle
  AGRN expression fc: −2.612
Refseq NM_198594.1, cultured human skeletal muscle
  C1QTNF1 expression fc: −3.846
Refseq NM_198833.1
  fc of SERPINB8 (expression array): −0.1046
Refseq NM_198925.1, cultured human skeletal muscle
  SEMA4B expression fc: −1.94
Refseq NM_199001.1, cultured human skeletal muscle
  C9orf169 expression fc: −2.509
Refseq NM_199048.1
  T1560 expression fc: 2.769
Refseq NM_199139.1, cultured human skeletal muscle
  XAF1 expression fc: −3.622
Refseq NM_199161.1, cultured human skeletal muscle
  SAA1 expression fc: −4.138
Refseq NM_199181.2
  C20orf117 fc: −1.08
Refseq NM_199203.1
  fc of TMEM189-UBE2V1 (expression array): −1.036
Refseq NM_201554.1, cultured human skeletal muscle
  DGKA expression fc: −1.955
Refseq NM_201599.1
  fc of ZMYM3 (expression array): −1.022
Refseq NM_203301.1
  FBXO33 expression fc: 3.22
Refseq NM_203446.1
  SYNJ1 expression fc: 2.433
Refseq NM_207315.2
  fc of CMPK2 (expression array): −0.8826
Refseq NM_207352.2
  CYP4V2 fc: −1.159
Refseq NM_207380.1
  fc of C15orf52 (expression array): −1.016
Refseq NM_207465.1
  FLJ45337 expression fc: 3.685
Refseq NM_001001323.1
  ATP2B1 fc: −1.082
Refseq NM_001001692.1
  FLJ45139 expression fc: 2.451
Refseq NM_001001821.1
  OR2T34 expression fc: 4.519
Refseq NM_001001995.1
  fc of GPM6B (expression array): −0.3998
Refseq NM_001002006.1
  NT5C1B expression fc: 3.495
Refseq NM_001002010.1
  fc of NT5C3 (expression array): −0.6592
Refseq NM_001002814.1
  RAB11FIP1 expression fc: 1.987
Refseq NM_001003679.1
  fc of LEPR (expression array): −1
Refseq NM_001004328.1
  ZNF705A expression fc: 6.832
Refseq NM_001005464.2
  HIST2H3A expression fc: 4.945
Refseq NM_001005742.1
  GBA fc: −1.065
Refseq NM_001006610.1
  SIAH1 expression fc: 3.699
Refseq NM_001008213.1
  OPTN fc: −1.113
Refseq NM_001008539.2, cultured human skeletal muscle
  SLC7A2 expression fc: −2.482
Refseq NM_001008540.1
  CXCR4 expression fc: 2.004
Refseq NM_001009566.1
  fc of CLSTN1 (expression array): −1.009
Refseq NM_001009611.1
  PRAMEF4 expression fc: 7.06
Refseq NM_001010876.1
  C6orf191 expression fc: 2.091
Refseq NM_001010889.2
  PRAMEF6 expression fc: 5.826
Refseq NM_001010890.1
  PRAMEF9 expression fc: 7.131
Refseq NM_001012276.1
  PRAMEF8 expression fc: 3.701
Refseq NM_001012277.1
  PRAMEF7 expression fc: 7.631
